We go through 1 compound from patent US12161647B2, “Treating hearing loss” (Massachusetts Eye and Ear Infirmary, priority 2012, dated 2024).

The test system of test [1] is neonatal organ of Corti explants. The test can be described thus: Neonatal organ of Corti explant culture, hair cell number. The format is cell-based, mouse. Here is the method: Cochleae of 3-d-postnatal C57BL/6 or Mos-iCsp3; Pou4f3-Cre double transgenic mice of both sexes were dissected in Hanks solution (Invitrogen). To obtain a flat cochlear surface preparation, the spiral ganglion, Reissner's membrane, and the most basal cochlear segment were removed. Explants were plated onto 4 well plates (Greiner Bio-One) coated with poly-L-ornithine (0.01%, Sigma) and laminin (50 μg/ml, Becton Dickinson). Cochlear explants were cultured in DMEM (Invitrogen) with 10% fetal bovine serum. All cultures were maintained in a 5% CO2/20% O2-humidified incubator (Forma Scientific).
For explants, the organs of Corti were fixed for 15 min with 4% paraformaldehyde in PBS. […] Primary antibodies were detected with secondary antibodies conjugated with Alexa 488 and 647 (Molecular Probes). The samples were stained with rhodamine phalloidin (Invitrogen) for 15 min and viewed by confocal fluorescence microscopy (TCS SP5, Leica).
Cell counting for spheres was performed with MetaMorph software. The cell number was determined from DAPI- or Hoechst-positive nuclei. […] For explants, inner hair cells, outer hair cells, and supporting cells in the outer hair cell region were counted on cochlear whole mounts. […] High-power images of the full-length cochlea or cochlear explant cultures were assembled and analyzed in PhotoShop CS4 (Adobe). […] Density (cells per 100 μm) was then calculated for each segment. […]

Test [2] concerns noise-damaged cochlea. The test can be described thus: Hair cell number after systemic LY411575 in noise-damaged mice. In kind it is in vivo, mouse. As to conditions: oral 50 mg/kg for 5 d. The method, then:
4-week-old mice were exposed free-field, awake and unrestrained, in a small reverberant chamber (22). Acoustic trauma was produced by a 2 h exposure to an 8-16 kHz octave band noise presented at 116 dB SPL. The exposure stimulus was generated by a custom white-noise source, filtered (Brickwall Filter with a 60 dB/octave slope), amplified (Crown power amplifier), and delivered (JBL compression driver) through an exponential horn fitted securely to a hole in the top of a reverberant box.
For systemic administration, LY411575 (50 mg/kg) dissolved in 0.5% (wt/vol) methylcellulose (WAKO) was injected orally once daily for 5 consecutive d. Hearing was measured by ABR at 1 d before, 2 d, 1, 2 week, 1, 2 and 3 months after noise exposure.
For collection of mature mouse cochleae, after being deeply anesthetized with ketamine and xylazine, the mice were transcardially perfused with 0.01 M phosphate buffer (pH 7.4) containing 8.6% sucrose, followed by fixative consisting of freshly depolymerized 4% paraformaldehyde in 0.1 M phosphate buffer (pH 7.4). […] Primary antibodies were detected with secondary antibodies conjugated with Alexa 488, 568, and 647 (Molecular Probes) and viewed by confocal fluorescence microscopy (TCS SP5, Leica). […]
Cell counting for spheres was performed with MetaMorph software. The cell number was determined from DAPI- or Hoechst-positive nuclei. […]

Consider `C[C@H](NC(=O)[C@@H](O)c1cc(F)cc(F)c1)C(=O)N[C@@H]1C(=O)N(C)c2ccccc2-c2ccccc21` [LY411575, N-2((2S)-2-(3,5-difluorophenyl)-2-hydroxyethanoyl)-N1-((7S)-5-methyl-6-oxo-6,7-dihydro-5H-dibenzo[b,d]azepin-7-yl)-l-alaninamide], for which the “increase in number of myosin VIIa-positive cells in the outer hair cell region compared to the control” value in test [1] (LY411575 1 μM, 72 h, p<0.05) is recorded as 30 cells/100 μm. Besides, in test [1] (apex, mid-apex and mid-base, cultured 3 d), the “number of hair cells in wild-type organ of Corti (Wt)” value is on record as “Increased”. Also, in test [2], the “outer hair cell numbers” value was “increased”.
